Among the data in ChEMBL document CHEMBL3886376, “Bicyclic pyridazine compounds as Pim inhibitors” (2015) are IC50 values, retold here.

Experiment [1] concerns the target Serine/threonine-protein kinase pim-2 (Homo sapiens, UniProt Q9P1W9). Nature of the experiment: (§1) PIM Enzyme Assay: The assay for the determination of Pim activity is based on the formation of phosphorylated biotinylated-BAD peptide at the Serine 112 residue (S112) and employs HTRF (homogeneous time resolved fluorescence) technology to detect the product in a 96-well plate format. The phosphorylation of biotinylated-BAD (S112) peptide by full length recombinant Pim-1, Pim-2, or Pim-3 protein was detected with streptavidin:Allophycocyanin (APC) conjugate and a europium (Eu) labeled antibody directed against phosphorylated-BAD (S112). Excitation of Eu by a high energy laser light (337 nm) leads to a transfer of energy to the APC molecule, and results in an emission at 665 nm. The fluorescence is directly proportional to the amount of phosphorylated BAD peptide present in the reaction.Compounds were prepared in DMSO by conducting 3-fold serial dilutions to give a 10-point dosing curve having a high dose of 1 uM. A reference compound was included on each assay plate in order to validate that plate. (Time-resolved FRET reads energy transfer from a long-lived donor to a nearby acceptor.)

Experiment [2] deals with Serine/threonine-protein kinase pim-1 (Homo sapiens, UniProt P11309). The experiment is described as §1.

What is called IC50 is the concentration that inhibits the measured activity by half.

For the compound `N[C@H]1CCC[C@@H](c2ccncc2Nc2ncc3ccc(-c4c(F)cccc4F)nn23)C1` (mixture of isomers), the concentration for half-maximal inhibition (IC50) in experiment [1] came to 27 nM; in experiment [2], 4 nM.
